From article PMC6938345, “Inhibition of complement activation, myeloperoxidase, NET formation and oxidant activity by PIC1 peptide variants” (PLoS ONE, 2019) come the findings set out here.

Each structure is given as a SMILES string.

Data set [1] has as its system purified human neutrophils. The data set can be described thus: NETosis assay, free DNA by PicoGreen. Type of data set: cell-based. Particulars: Average of n = 3; peptide 2 mM. On the procedure: NETosis assays with immune complexes were performed as previously described. Briefly, normal human serum was stimulated with ovalbumin-antiovalbumin immune complexes in GVBS^++ for 30 minutes at 37 °C. This mixture along with 0.05% H2O2 was then added to purified human neutrophils resuspended in RPMI with or without sarcosine variants (2 mM), allowing NETosis to occur. Quantitation of free DNA released from the neutrophils was performed using PicoGreen. Slides were stained with DAPI (Southern Biotech, Birmingham, AL) and the following antibodies, mouse anti-elastase (Invitrogen, Carlsbad, CA) was used with the secondary goat anti-mouse Alexa Fluor 568 (Novus Biologicals, Centennial, CO) and rabbit anti-histone H3 (Abcam, Cambridge MA) with goat anti-rabbit Alexa Fluor 488 (Novus Biologicals) to visualize formation of NETs which were imaged with fluorescence microscopy with an Olympus BX53 microscope.
In this assay purified human neutrophils are stimulated with normal human serum activated with ovalbumin-antiovalbumin immune complexes and hydrogen peroxide. Free DNA expressed from the neutrophils is then measured in a PicoGreen assay.
Fig 5 Sarcosine variant inhibition of NET formation. Fluorescence microscopy images of NET formation after neutrophil stimulation with immune complexes (IC) and hydrogen peroxide (H2O2) compared with neutrophil only control. Variant I8 inhibition of NET formation is shown in the third row. Histones are probed with anti-histone antibody (αhistone), neutrophil elastase is probed with anti-neutrophil elastase (αNE) and DNA is stained with DAPI. Representative images are shown. […] Purified human neutrophils were stimulated with 2% normal human sera pre-incubated with ovalbumin-antiovalbumin immune complexes, and 0.05% H2O2. Sarcosine peptides and PIC1 were added to the sera to a final concentration of 2 mM. Data are the means of n = 3 independent experiments + SEM.

The target of a further data set is T1, MPO heme ring (Homo sapiens, UniProt P05164).
T1 construct: purchased Lee BioSolutions (Maryland Heights, MO)
T1 sequence (P05164 49-745): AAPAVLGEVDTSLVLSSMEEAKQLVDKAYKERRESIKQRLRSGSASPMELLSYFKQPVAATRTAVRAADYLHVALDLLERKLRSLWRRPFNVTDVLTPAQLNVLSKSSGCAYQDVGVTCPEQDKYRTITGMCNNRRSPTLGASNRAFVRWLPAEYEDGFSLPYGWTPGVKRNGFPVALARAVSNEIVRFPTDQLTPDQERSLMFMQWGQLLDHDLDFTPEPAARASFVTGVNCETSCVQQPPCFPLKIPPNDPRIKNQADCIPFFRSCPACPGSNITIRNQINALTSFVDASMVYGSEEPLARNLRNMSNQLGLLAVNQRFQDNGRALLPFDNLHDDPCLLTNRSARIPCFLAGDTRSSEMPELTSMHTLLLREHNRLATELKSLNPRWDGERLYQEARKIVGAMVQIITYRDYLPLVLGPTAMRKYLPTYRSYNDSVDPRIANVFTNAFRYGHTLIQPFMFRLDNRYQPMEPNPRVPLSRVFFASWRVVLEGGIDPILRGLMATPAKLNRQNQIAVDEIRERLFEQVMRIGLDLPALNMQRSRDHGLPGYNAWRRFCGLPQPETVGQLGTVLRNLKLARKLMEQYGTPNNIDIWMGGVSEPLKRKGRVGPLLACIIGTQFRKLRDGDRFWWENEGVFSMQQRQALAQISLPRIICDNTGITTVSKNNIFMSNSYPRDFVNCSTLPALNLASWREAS
Put plainly: MPO heme ring oxidative degradation. Particulars: peptides 3.0 mM, H2O2, absorbance 300-550 nm. In kind it is biochemical. On the procedure: In a 96 well plate, 0.025 ml of 1.7 mg/ml MPO was combined with 0.00125 ml of 0.5% H2O2 and 3 mM PIC1 or sarcosine variant peptides in a total volume of 0.125 ml PBS and left to incubate at room temperature for 2 minutes. Using a 96 well plate reader, the wells were scanned for absorbance from 300–550 nm to generate curves reflecting the iron state in the MPO heme ring, as previously reported.
We then evaluated the ability of the variants to prevent degradation of the heme ring in the MPO molecule. […] This can be evaluated via spectrometric measurements of absorption of wavelengths from 300–550 nm. Absorption measurements were made over this spectrum for all variants (Fig 3A–3H). […] The heme ring preservation for these two variants was greater than that for the parent compound, PA-dPEG24.
Fig 3 Sarcosine variant protection of MPO heme ring from oxidative degradation. Absorbance spectra for the heme ring is shown in the absence of hydrogen peroxide (MPO) in red, in the presence of hydrogen peroxide (MPO+H2O2) in black, in the presence of peptide in blue, and in the presence of hydrogen peroxide and peptide together in green. […] B-H) Peptides A2 – C9,10 are denoted in the legends. Peptides were tested at a concentration of 3.0 mM.

Data set [2] can be described thus: Total Antioxidant Capacity (TAC) assay. On the procedure: The TAC (Total Antioxidant Capacity) Assay (Cell Biolabs, Inc, San Diego, CA) was used to measure the antioxidant capacity of the sarcosine variants based on the reduction of copper (II) to copper (I). The kit protocol was performed as recommended.
Antioxidant activity is measured in copper reducing equivalents (CRE). Peptides were tested over a range of concentrations from 0.03–0.25 mM then compared to the standard. Data are the means of n = 3 independent experiments + SEM.

The subject of data set [3] is antibody-initiated complement activation (type O sera + type AB red blood cells). The data set can be described thus: ABO incompatibility hemolytic assay (CH50-type, ex vivo). Type of data set: cell-based, human. The conditions noted are these: peptides 1.8 mM. On the procedure: For hemolytic complement assays, human red blood cells (RBCs) from type AB donors were purified, washed and standardized to 1 × 10^9 cells/ml, as previously described. Human sera from type O donors at a 20% final concentration was combined with 1 mM PIC1 or sarcosine variant peptides and the volume was brought up to 0.15 ml with GVBS^++ and 0.5 ml RBCs. For factor B-depleted sera hemolytic assays, a final of 0.005% factor B depleted sera was incubated with 1 mM PIC1 or sarcosine variant peptides with 0.1 ml antibody-sensitized sheep red blood cells (EA) in a final volume of 0.75 ml GVBS^++. The samples were incubated for 1 hour at 37 °C and then 1.0 ml of GVBS^-—was added to the factor B-depleted samples to stop the reaction. The samples were spun at 3,000 rpm for 5 minutes and the supernatant was collected and read at 412 nm. Values are represented as a percent of the positive control, which consists of human O sera and AB red blood cells in GVBS^++ buffer.
In order to evaluate the extent to which the peptide variants inhibit antibody-initiated complement activation, we tested them in two hemolytic assays including an ABO incompatibility ex vivo assay (Fig 1A) and a classical pathway CH50-type assay in factor B-depleted sera (Fig 1B). In the ABO incompatibility hemolytic assay, purified erythrocytes from a ‘type AB+’ donor are incubated with sera from a ‘type O’ subject containing anti-A and anti-B antibodies; peptides were tested at 1.8 mM. […] We then performed a CH50-type hemolytic assay, with antibody-sensitized sheep erythrocytes, isolating the classical pathway by utilizing factor B-depleted sera; peptides were tested at 0.4 mM.
Fig 1 Sarcosine variant inhibition of complement activation in hemolytic assays and C1q binding. A) Inhibition of ABO incompatibility hemolysis in a CH50-type assay. Peptides are at a final concentration of 1.8 mM. […] Data are the means of n = 4 independent experiments + SEM. B) Inhibition of classical complement pathway-mediated hemolysis in factor B-depleted sera in a CH50-type assay. Peptides are at a final concentration of 0.4 mM. Data are the means of n = 4 independent experiments + SEM. C) Binding of increasing concentrations of sarcosine variants to purified C1q in an ELISA-type assay. Data are the means of n = 3 independent experiments ± SEM. D) Half-maximal binding concentrations were calculated for each peptide’s binding curve.

A short description of data set [4]: Peptide solubility in water. On the procedure: (PA) (Table 1) were synthesized by New England Peptide (Gardner, MA) to >90% purity. Sarcosine variants and PEG were dissolved in water and the pH was adjusted with NaOH. PA was dissolved in DMSO and then brought up to the final concentration with water resulting in 30% DMSO and pH adjusted. Antibody sensitized sheep erythrocytes (EA), purified C1q and factor B-depleted human sera were purchased from Complement Technology (Tyler, TX). Purified myeloperoxidase was purchased from Lee BioSolutions (Maryland Heights, MO) and tetramethylbenzidine (TMB) and PicoGreen were purchased from Thermo Fisher (Waltham MA).
(PA), peptide derivatives were synthesized with sarcosine residues substituted at all 15 positions, included a peptide in which the vicinal cysteines at positions 9 and 10 (C9,C10) were replaced with a single sarcosine residue (Table 1).

For the compound `CC[C@H](C)[C@H](N)C(=O)N[C@@H](C)C(=O)N[C@@H](CC(C)C)C(=O)N[C@H](C(=O)N[C@@H](CC(C)C)C(=O)N[C@@H](CCC(=O)O)C(=O)N1CCC[C@H]1C(=O)N[C@H](C(=O)N(C)CC(=O)N[C@@H](CS)C(=O)N[C@@H](CCC(N)=O)C(=O)N[C@@H](CCC(=O)O)C(=O)N[C@@H](CCCNC(=N)N)C(=O)N[C@@H](C)C(=O)N[C@@H](C)C(=O)O)[C@@H](C)CC)[C@@H](C)CC` [C9], the “PICO green - NETs, free DNA release” value in data set [1] came to 38. In addition, the “protection of MPO heme ring from degradation (in words)” value at MPO heme ring is “near perfect preservation”. Also, the “TAC assay, antioxidant activity” value in data set [2] (Avg of n = 3) is 845.83 copper reducing equivalents (CRE). Moreover, the “antioxidant capacity (in words)” value in data set [2] (TAC assay) is listed as “approximately half of the antioxidant capacity as PA-dPEG24”. The ABO hemolysis in data set [3] (Avg of n = 4, concentration basis of PIC1 not stated) is given as 18.25 % of Control. The “inhibition of ABO incompatible hemolysis (in words)” value in data set [3] is “to a greater extent than did the PA-dPEG24”. Besides, the “solubility in water (in words)” value in data set [4] is listed as “soluble in water”.
